According to patent US20220041559A1, “BENZO-AND PYRIDO-PYRAZOLES AS PROTEIN KINASE INHIBITORS” (ROTTAPHARM BIOTECH S.R.L., priority 2019, published 2022):
pIC50: −log10 of the molar value. Read-outs that look alike come from different tables or passages of the source.

How the values were obtained:
EGFR = EGFR (Homo sapiens, UniProt P00533); test: ADP-Glo in vitro kinase assay, EGFR kinase inhibition; assay type: biochemical; set-up: purchased SignalChem; conditions: for pIC50: ATP 10 μM, 30 minutes at room temperature; for EGFR kinase inhibition, result in words: text summary of Table 18
Protocol: (§1) The ADP-Glo™ Kinase Assay (Promega), monitoring ADP produced in the kinase reaction, was performed in two steps. In the first one, after the kinase reaction, the ADP-Glo™ Reagent is added to terminate the kinase reaction and deplete the remaining ATP. In the second step, the Kinase Detection Reagent is added to simultaneously convert ADP to ATP (ATPn or newly synthesized ATP) and introduce luciferase and luciferin, allowing the ATPn to be measured (luciferase/luciferin reaction). The amount of light generated correlates with the amount of ATPn (indirectly with the ADP produced in kinase reaction).
(§2) Kinase reaction was performed in 10 μl in a white 384-well plate, inhibitor solutions in DMSO/Kinase buffer (40 mM Tris-Cl, 20 mM MgCl2, 0.1 mg/ml BSA, 50 μM DTT, pH 7.5) and EGFR kinase in Kinase buffer (SignalChem, 2.5 ng/μl final concentration in assay) were pre-incubate 15 minutes at room temperature. At the kinase concentration selected a signal-to negative control ratio >10 was calculated, according to supplier indication. In samples representing the Total enzymatic activity (no inhibitor) or the negative control (no enzyme), inhibitor solution was replaced by diluents (1 DMSO in kinase buffer, final concentration) or ultra-pure water, respectively.
(§3) The range of inhibitor concentrations was from 10^−11 M up to 3×10^−6 M (final concentration in assay) and each experimental point was performed in duplicate.
(§4) To start the reaction, a substrate/ATP mix (ATP 10 μM final concentration, near to ATP Km value) was added to each sample and after 30 minutes incubation at room temperature, ADP-Glo™ Reagent and Kinase Detection Reagent, incubated in sequence according to the respective incubation time and supplier indication, allowed to stop and develop the kinase reaction. The luminescence was measured with a plate-reading luminometer (Envision 2104 Multilabel reader, PerkinElmer). The percentage of inhibition was calculated towards the Total enzymatic activity and the corresponding curves were analyzed by non linear curve fitting (GraphPad software, version 7 for Windows), allowing to calculate the IC50 value±standard error of the estimate.

VEGFR2 (KDR) kinase = target: T1, VEGFR2 (KDR) kinase (Homo sapiens, UniProt P35968); test: ADP-Glo in vitro kinase assay, VEGFR2 kinase inhibition; assay type: biochemical; conditions: for pIC50: ATP 50 μM, 30 minutes at room temperature; for VEGFR2 kinase inhibition, result in words: Table 19
T1 construct: purchased SignalChem
Protocol: as §1
as §2, with “VEGFR2 (KDR)” for “EGFR”, “0.5” for “2.5”, “selected,” for “selected”, “activity” for “activity (no inhibitor)”
as §3
as §4, with “(50” for “(ATP 10”, “value” for “estimate.”

FYN = target: T2, FYN (Homo sapiens, UniProt P06241); test: Z'-LYTE in vitro kinase assay, FYN kinase inhibition; assay type: biochemical; conditions: near-Km ATP, 60 minutes at 25° C.
T2 construct: purchased CarnaBioscience
Protocol: Assays to determine the kinase inhibitory activity of compounds were performed using an automatic liquid handling device (Microlab STAR Hamilton) and Z′-LYTE™ Kinase Assay Platform (Invitrogen), a Fluorescence Resonance Energy Transfer (FRET)-based assay platform compatible with high-throughput screening (HTS) applications. The assay employs a fluorescence-based, coupled-enzyme format and utilizes the differential sensitivity of phosphorylated and non-phosphorylated peptides to proteolytic cleavage.
Test compounds were evaluated towards active FYN (CarnaBioscience). The enzyme was incubated in a 384 low-volume microplate with a synthetic peptide-substrate, ATP and different inhibitor concentrations, ranging from 10^−10 M up to 10^−5 M final concentration. Samples representing the 0% inhibition (or total enzymatic activity) were in the presence of compound diluent (1% DMSO final) in Reaction Buffer (50 mM Hepes, 10 mM MgCl2, 1 mM EGTA, 0.01% Brij-35, pH 7.5).
A near-Km ATP concentrations for the kinase and an optimal enzyme concentration that phosphorylates 20-40% of the Z′-LYTE™ Tyr 2 Peptide in a one-hour incubation, were selected. All reagents were diluted in reaction buffer and the kinase reaction was carried out in a total volume of 10 μl, for 60 minutes at 25° C. The 0% Phosphorylation (i.e. no ATP) and 100% Phosphorylation (i.e. synthetically phosphorylated peptide supplied) Assay Controls, included in each plate, allowed to calculate the percent phosphorylation achieved in the specific reaction well. The 0% Inhibition and 0% Phosphorylation (i.e. 100% Inhibition) Controls define the dynamic range in the screen. At the end of incubation, a secondary reaction (the Development Reaction) started by adding 5 μl of Development Reagent, containing a site-specific protease that recognizes and cleaves non-phosphorylated peptides, and was interrupted after 60 minutes with 5 μl/sample of Stop Reagent. Measurement of the Coumarin (Ex. 400 nm, Em. 460 nm) and Fluorescein (Ex. 400 nm, Em. 535 nm) emission signals were performed by a fluorescence plate reader (Envision, PerkinElmer).
Results are expressed as percentage of inhibition and the IC50 values were calculated by non-linear curve fitting using GraphPad™ Prism software.

[1] = Pharmacokinetics in CD1 mice, iv and po; assay type: in vivo; conditions: 3 mg/kg; for half-life: read-out: t½* (converted)
human FynB = human FynB (Homo sapiens, UniProt P06241); test: Inhibition of FynB-induced Tau(Y18)-phosphorylation (cell-based assay, HEK293); conditions: for pIC50: HEK293 over-expressing FynB and Tau 0N4R, incubation 6 or 24 hours, ELISA
Protocol: HEK293 cells (Human Embryonic Kidney 293) were seeded at 6×10^5 in poly-D-lysine 12 w microplates and grown adherent in medium DMEM/10% FBS at 37° C. with 5% CO2. After 24 h, cells were transfected in order to over-express either constitutively active form of human FynB and Tau protein (isoform 0N4R), through an optimized Lipofectamine® 3000 Transfection protocol (Life Technologies™). A non-transfected sample (negative control) was included in every experiment.
Twenty-four hours from transfection, treatments of cells were performed by adding fresh medium containing diluent (DMSO 0.1% final concentration) or test compounds. The incubation was carried out for 6 or 24 hours at 37° C. with 5% CO2. All experimental conditions were performed in duplicate.
At the end of the incubation, the medium was removed and cellular lysates were obtained by adding M-PER lysis buffer containing a 1× Protease/Phosphatase inhibitors cocktail. Then, lysates were transferred into Eppendorf tubes, sonicated and stored at −80° C.
Protein content was measured by Bradford method. Lysates were analyzed by a customized ELISA assay for Tau phosphorylation (Tyrosine 18 residue-Fyn mediated) and Total amount determination. The net OD values were used to calculate the inhibitory effect of compounds.

T2 sequence (P06241 whole entry): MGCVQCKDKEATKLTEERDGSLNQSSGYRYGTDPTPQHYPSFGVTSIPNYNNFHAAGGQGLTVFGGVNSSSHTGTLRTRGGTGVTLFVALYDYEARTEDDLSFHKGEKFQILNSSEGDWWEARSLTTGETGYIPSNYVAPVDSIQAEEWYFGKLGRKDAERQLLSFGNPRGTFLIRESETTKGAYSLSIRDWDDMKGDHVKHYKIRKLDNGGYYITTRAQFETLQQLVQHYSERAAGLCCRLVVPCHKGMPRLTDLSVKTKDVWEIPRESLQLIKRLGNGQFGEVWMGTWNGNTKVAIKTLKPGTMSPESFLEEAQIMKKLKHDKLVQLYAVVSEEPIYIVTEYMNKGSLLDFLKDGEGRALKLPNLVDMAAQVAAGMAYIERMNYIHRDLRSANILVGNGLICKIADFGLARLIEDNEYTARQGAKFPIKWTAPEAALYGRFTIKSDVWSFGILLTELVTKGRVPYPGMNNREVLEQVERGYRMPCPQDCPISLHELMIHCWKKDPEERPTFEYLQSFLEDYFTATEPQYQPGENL
Sequence of human FynB (P06241 271-524 limits assumed): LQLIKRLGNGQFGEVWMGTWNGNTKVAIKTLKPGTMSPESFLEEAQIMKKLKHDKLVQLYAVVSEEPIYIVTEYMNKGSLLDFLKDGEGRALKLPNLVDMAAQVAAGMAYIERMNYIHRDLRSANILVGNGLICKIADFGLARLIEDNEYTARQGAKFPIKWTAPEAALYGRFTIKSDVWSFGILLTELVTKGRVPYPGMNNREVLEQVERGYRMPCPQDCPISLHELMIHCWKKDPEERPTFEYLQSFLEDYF
Sequence of EGFR (P00533 25-1210): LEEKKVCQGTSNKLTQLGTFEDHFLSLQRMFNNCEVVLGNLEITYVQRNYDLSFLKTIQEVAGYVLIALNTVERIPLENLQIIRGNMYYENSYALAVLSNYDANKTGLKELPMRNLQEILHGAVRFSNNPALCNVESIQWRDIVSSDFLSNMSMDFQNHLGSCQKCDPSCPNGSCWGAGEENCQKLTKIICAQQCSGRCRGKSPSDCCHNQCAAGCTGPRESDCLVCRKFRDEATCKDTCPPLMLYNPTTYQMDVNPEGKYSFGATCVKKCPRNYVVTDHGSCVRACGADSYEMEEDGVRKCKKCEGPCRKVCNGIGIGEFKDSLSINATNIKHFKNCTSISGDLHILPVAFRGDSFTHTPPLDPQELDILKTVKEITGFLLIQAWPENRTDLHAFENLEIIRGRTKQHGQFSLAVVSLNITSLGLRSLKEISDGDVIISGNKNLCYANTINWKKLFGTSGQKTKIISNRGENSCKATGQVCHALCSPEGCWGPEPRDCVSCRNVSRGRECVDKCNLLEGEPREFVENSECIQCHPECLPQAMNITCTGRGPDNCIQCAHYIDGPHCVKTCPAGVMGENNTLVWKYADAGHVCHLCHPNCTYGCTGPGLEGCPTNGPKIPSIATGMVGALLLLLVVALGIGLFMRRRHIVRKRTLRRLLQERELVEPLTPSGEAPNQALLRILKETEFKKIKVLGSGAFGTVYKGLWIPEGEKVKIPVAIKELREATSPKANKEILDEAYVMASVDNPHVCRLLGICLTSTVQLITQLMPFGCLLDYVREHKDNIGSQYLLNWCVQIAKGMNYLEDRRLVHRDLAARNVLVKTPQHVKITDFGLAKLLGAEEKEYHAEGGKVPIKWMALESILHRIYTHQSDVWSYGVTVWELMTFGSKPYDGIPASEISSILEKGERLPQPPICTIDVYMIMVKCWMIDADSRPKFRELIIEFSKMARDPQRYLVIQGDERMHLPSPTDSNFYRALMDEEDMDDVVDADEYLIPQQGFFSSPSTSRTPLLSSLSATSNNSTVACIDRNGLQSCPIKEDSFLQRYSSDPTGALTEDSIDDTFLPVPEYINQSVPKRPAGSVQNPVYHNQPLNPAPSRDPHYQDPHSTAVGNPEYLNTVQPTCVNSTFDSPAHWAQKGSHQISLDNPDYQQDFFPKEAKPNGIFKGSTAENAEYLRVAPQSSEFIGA
T1 sequence (P35968 20-1356): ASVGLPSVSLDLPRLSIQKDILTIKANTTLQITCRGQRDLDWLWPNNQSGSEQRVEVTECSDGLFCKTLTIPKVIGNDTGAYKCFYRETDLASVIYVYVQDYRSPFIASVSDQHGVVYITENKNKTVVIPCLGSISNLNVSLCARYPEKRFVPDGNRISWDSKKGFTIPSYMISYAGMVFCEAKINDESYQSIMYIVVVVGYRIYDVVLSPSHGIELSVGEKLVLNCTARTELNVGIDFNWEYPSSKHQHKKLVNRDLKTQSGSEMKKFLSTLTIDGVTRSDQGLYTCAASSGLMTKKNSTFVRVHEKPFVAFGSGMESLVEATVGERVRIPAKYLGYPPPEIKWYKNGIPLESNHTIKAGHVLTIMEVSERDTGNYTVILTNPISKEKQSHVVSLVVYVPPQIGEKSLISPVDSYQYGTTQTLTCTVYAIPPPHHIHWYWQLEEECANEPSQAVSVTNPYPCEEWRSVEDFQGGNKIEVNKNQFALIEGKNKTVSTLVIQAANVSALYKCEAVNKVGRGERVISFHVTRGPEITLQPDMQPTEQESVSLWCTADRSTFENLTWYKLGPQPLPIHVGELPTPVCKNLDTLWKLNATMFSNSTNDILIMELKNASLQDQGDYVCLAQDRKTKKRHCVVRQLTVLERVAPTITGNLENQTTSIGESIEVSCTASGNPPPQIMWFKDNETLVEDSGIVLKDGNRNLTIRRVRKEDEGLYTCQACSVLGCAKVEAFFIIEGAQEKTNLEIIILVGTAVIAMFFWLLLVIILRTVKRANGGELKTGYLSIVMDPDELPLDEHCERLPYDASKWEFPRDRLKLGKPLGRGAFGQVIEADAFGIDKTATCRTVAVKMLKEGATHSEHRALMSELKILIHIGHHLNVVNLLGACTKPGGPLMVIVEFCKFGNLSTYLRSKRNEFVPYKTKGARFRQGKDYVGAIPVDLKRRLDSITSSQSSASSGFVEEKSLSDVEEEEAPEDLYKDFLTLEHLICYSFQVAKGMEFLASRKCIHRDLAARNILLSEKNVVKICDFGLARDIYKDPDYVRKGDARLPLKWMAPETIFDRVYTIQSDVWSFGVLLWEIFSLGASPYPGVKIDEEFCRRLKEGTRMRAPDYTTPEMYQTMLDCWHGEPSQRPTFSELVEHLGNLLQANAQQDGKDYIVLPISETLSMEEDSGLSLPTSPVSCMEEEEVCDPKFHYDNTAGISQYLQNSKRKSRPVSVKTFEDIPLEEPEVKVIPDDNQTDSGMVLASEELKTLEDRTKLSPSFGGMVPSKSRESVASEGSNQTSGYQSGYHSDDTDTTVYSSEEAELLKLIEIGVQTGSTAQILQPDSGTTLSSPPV

Row | SMILES | pIC50 (EGFR) | pIC50 (VEGFR2 (KDR) kinase) | pIC50 (FYN) | pIC50 (human FynB) | other results
1 | CN1CCC(c2ccc(C(=O)Nc3n[nH]c4cc(Nc5c(F)cccc5Cl)ccc34)cc2)CC1 [Compound 1, N-(6-((2-chloro-6-fluorophenyl)amino)-1H-indazol-3-yl)-4-(1-methylpiperidin-4-yl)benzamide] | 6.99 | 6.98 | 6.98 |  | EGFR kinase inhibition, result in words (EGFR): more active
2 | Cc1ccc(Nc2ccc3c(NC(=O)c4ccc(C5CCN(C)CC5)cc4)n[nH]c3c2)c(F)c1 [Compound 8, N-(6-((2-fluoro-4-methylphenyl)amino)-1H-indazol-3-yl)-4-(1-methylpiperidin-4-yl)benzamide] | ≤ 6.00 | 6.90 | 7.00 |  | 
3 | CN1CCC(c2ccc(C(=O)Nc3n[nH]c4cc(Nc5ccccc5Cl)ccc34)cc2)CC1 [Compound 14, N-(6-((2-chlorophenyl)amino)-1H-indazol-3-yl)-4-(1-methylpiperidin-4-yl)benzamide] | ≤ 6.00 | 7.24 | 7.09 |  | 
4 | CN1CCC(c2ccc(C(=O)Nc3n[nH]c4cc(Nc5ccccc5F)ccc34)cc2)CC1 [Compound 17, N-(6-((2-fluorophenyl)amino)-1H-indazol-3-yl)-4-(1-methylpiperidin-4-yl)benzamide] | 6.65 | 6.65 | 7.06 |  | Tlast ([1]; iv): 24 h; AUC(0-inf) ([1]; mouse, plasma, iv): 1400 ng·h/mL; AUC(0-t) ([1]; mouse, plasma, iv): 1350 ng·h/mL; clearance ([1]; mouse, plasma, iv, read-out: CLp): 47.7 mL/min/kg; Vd ([1]; mouse, plasma, iv, read-out: Vz): 22.8 L/kg; half-life ([1]; mouse, plasma, iv): 5.5 h; AUC(0-inf) ([1]; mouse, plasma, po): 726 ng·h/mL; AUC(0-t) ([1]; mouse, plasma, po): 712 ng·h/mL; Cmax ([1]; mouse, plasma, po): 178 nM; Tmax ([1]; mouse, plasma, po): 1 h; bioavailability ([1]; mouse, plasma, po): 53%; half-life ([1]; mouse, plasma, po): 4.5 h; Tlast ([1]; po): 24 h
5 | CN1CCC(c2ccc(C(=O)Nc3n[nH]c4nc(Nc5cccc(F)c5F)ccc34)cc2)CC1 [Compound 20, N-(6-((2,3-difluorophenyl)amino)-1H-pyrazolo[3,4-b]pyridin-3-yl)-4-(1-methylpiperidin-4-yl)benzamide] | 8.05 | 6.98 | 6.68 | 6.63 | EGFR kinase inhibition, result in words (EGFR): more active; Inhibition of FynB-induced Tau(Y18)-phosphorylation, result in words (human FynB; summary of Table 20): best inhibitors
6 | COCCN1CCC(c2ccc(C(=O)Nc3n[nH]c4nc(Nc5ccccc5F)ccc34)cc2)CC1 [Compound 25, N-(6-((2-fluorophenyl)amino)-1H-pyrazolo[3,4-b]pyridin-3-yl)-4-(1-(2-methoxyethyl)piperidin-4-yl)benzamide] |  |  | 6.62 | 5.75 | 
7 | CN1CCC(c2ccc(C(=O)Nc3n[nH]c4nc(Nc5ccccc5)ccc34)cc2)CC1 [Compound 29, 4-(1-methylpiperidin-4-yl)-N-(6-(phenylamino)-1H-pyrazolo[3,4-b]pyridin-3-yl)benzamide] | ≤ 6.00 | 9.00 | 7.02 |  | VEGFR2 kinase inhibition, result in words (VEGFR2 (KDR) kinase): more potent
8 | CN1CCC(c2ccc(C(=O)Nc3n[nH]c4nc(Nc5ccc(C#N)cc5)ccc34)cc2)CC1 [Compound 32, N-(6-((4-cyanophenyl)amino)-1H-pyrazolo[3,4-b]pyridin-3-yl)-4-(1-methylpiperidin-4-yl)benzamide] | ≤ 6.00 | 8.52 | 6.45 |  | VEGFR2 kinase inhibition, result in words (VEGFR2 (KDR) kinase): more potent
9 | COc1ccc(Nc2ccc3c(NC(=O)c4ccc(C5CCN(C)CC5)cc4)n[nH]c3n2)cc1F [Compound 33, N-(6-((3-fluoro-4-methoxyphenyl)amino)-1H-pyrazolo[3,4-b]pyridin-3-yl)-4-(1-methylpiperidin-4-yl)benzamide] |  |  | 6.99 | 5.73 | 
10 | CN1CCC(Oc2ccc(C(=O)Nc3n[nH]c4cc(Oc5ccccc5F)ccc34)cc2)CC1 [Compound 37, N-(6-(2-fluorophenoxy)-1H-indazol-3-yl)-4((1-methylpiperidin-4-yl)oxy)benzamide] | ≤ 6.00 | 6.36 | 6.41 |  | 
11 | CN1CCC(c2ccc(C(=O)Nc3n[nH]c4cc(Nc5ccccc5F)ccc34)nc2)CC1 [Compound 39, N-(6((2-fluorophenyl)amino)-1H-indazol-3-yl)-5-(1-methylpiperidin-4-yl)picolinamide] | ≤ 6.00 | 6.27 | 6.74 |  | 
12 | CN1CCC(Oc2ccc(C(=O)Nc3n[nH]c4nc(Nc5ccccc5F)ccc34)cc2)CC1 [Compound 47, N-(6-((2-fluorophenyl)amino)-1H-pyrazolo[3,4-b]pyridin-3-yl)-4((1-methylpiperidin-4-yl)oxy)benzamide] | 7.62 | 7.92 | 6.29 |  | EGFR kinase inhibition, result in words (EGFR): more active; VEGFR2 kinase inhibition, result in words (VEGFR2 (KDR) kinase): more potent
13 | CC(=O)N1CCN(c2ccc(C(=O)Nc3n[nH]c4nc(Nc5ccccc5F)ccc34)cc2)CC1 [Compound 52, 4-(4-acetylpiperazin-1-yl)-N-(6((2-fluorophenyl)amino)-1H-pyrazolo[3,4-b]pyridin-3-yl)benzamide] |  |  | 6.77 | 6.19 | 
